Like-named read-outs stand apart in the source and are kept apart here.
Assays:
TEAD4 Cys367Ser mutant [1] = target: T1, TEAD4 Cys367Ser mutant (Homo sapiens, UniProt Q15561, C367S); assay: Fluorescence polarization, GST-TEAD4 Cys367Ser mutant with FAM-Yap60-99 peptide; type: binding; conditions: 24 h at 4° C.
T1 construct: TEAD4 (217-434) Cys367Ser mutant and Yap1 (Full-length) were expressed as GST-fusion proteins; made in house; host or cells: E. coli BL-21 (DE3), pGEX-6P-1
Method: GST-TEAD4, GST-TEAD4 Cys367Ser mutant or HIS-TEAD2 interaction with Yap1 was investigated using a fluorescently-labeled peptide (FAM-Yap60-99), consisting of FAM-labeled TEAD-binding peptide fragment of Yap1 (FAM-[…] TVPMCLRKLPASFCKPP), which has a disulfide bridge (American Peptide, Sunnyvale, Calif.). Addition of FAM-Yap60-99 to the TEAD was followed by measurement of changes in polarization. 40 μL of 125 nM GST-TEAD4 WT or GST-TEAD4 Cys367Ser in assay buffer (PBS with 0.01% v/v Triton-X100) or 40 μL of 64 nM HIS-TEAD2 was added to a 384-well black polystyrene plate (Cat. No. 262260; Nunc, Roskilde, Denmark) and incubated with 5 μL of […] serially diluted compounds in assay buffer supplemented with 20% v/v DMSO for 24 h at 4° C. Finally, 5 μL of 160 nM FAM-Yap60-99 peptide was added, the plate centrifuged, and the polarization was measured on an Envision Multilabel Plate Reader (PerkinElmer, Waltham, Mass.) using a filter set with excitation and emission wavelengths of 485 and 535 nm, respectively. Percent inhibition was calculated as relative to a minimum inhibition control, which is without compound, and a maximum inhibition control, which is without a TEAD.

TEAD4 Cys367Ser mutant [2] = target: T1, TEAD4 Cys367Ser mutant; assay: Whole protein ESI mass spectrometry, adduct formation with mutant; type: binding; conditions: 10 μM mutant, 200 μM compound, 24 h at 4° C.
Method: (§1) The samples were centrifuged at 20,000×g for […] to remove precipitants before being injected into an empty column on an Agilent 1200 liquid chromatography system (Agilent, Santa Clara, Calif.), using 80% Buffer A (H2O, 5 mM NH4OAc) and 20% Buffer B (ACN, 5 mM NH4OAc), and the masses were detected on an Agilent 6520 Accurate Mass Q-TOF.
FIG. 4A illustrates analysis by ESI mass spectrometry after 10 μM TEAD4 Cys367Ser mutant was incubated with 200 μM compound for 24 h at 4° C. FIG. 4B illustrates measurement of fluorescence polarization due to binding when increasing concentration of TEAD4 Cys367Ser mutant was mixed with 16 nM FAM-Yap60-99 peptide (mean±s.d.; n=3). FIG. 4C illustrates measurement of fluorescence polarization due to binding when TEAD4 Cys367Ser mutant was incubated with increasing concentration of compounds for 24 h at 4° C. followed by addition of FAM-Yap60-99 (mean±s.d.; n=3).

CTGF transcript levels [3] = assay: qRT-PCR of CTGF transcript in GBM43 cells; type: cell-based, human; conditions: FIG. 8C
CTGF transcript levels [4] = assay: qRT-PCR of CTGF transcript in HEK293 cells; type: cell-based; conditions: HEK293, 48 h
Method: HEK293 cells co-transfected the Flag-YAP and myc-TEAD4 constructs were incubated with DMSO or the indicated amount of compounds for 48 h. Total RNA was purified using the RNeasy plus mini kit (QIAGEN, Hilden, Germany) according to the manufacturer's instructions. Complementary DNA was synthesized from 500 ng total RNA with Oligo-dT primers and the Multi-Scribe reverse transcriptase (Fisher, Waltham, Mass.) according to the manufacturer's instructions.
Real-time PCR reactions utilized 100 ng cDNA, 200 nM gene specific primers and the Sensifast No-ROX mix (Bioline, Taunton, Mass.) in a total volume of 20 μl. All measurements were carried out in triplicate using an Eppendorf Mastercycler® RealPlex2. The sequences of primers for CTGF were forward, 5′-TTGGCCCAGACCCAACTA-3 (SEQ ID NO: 1); and reverse, 5′-GCAGGAGGCGTTGTCATT-3′ (SEQ ID. NO: 2). The primer sequences for (3-actin were forward, 5′-TTGGCAATGAGCGGTTCC-3 (SEQ ID NO: 3); and reverse, 5′-[…]-3′ (SEQ ID NO: 4).

TEAD4.Yap1 interaction = TEAD4.Yap1 interaction (Homo sapiens, UniProt Q15561); assay: Fluorescence polarization, GST-TEAD4 with FAM-Yap60-99 peptide; type: binding; design: TEAD4 (217-434), TEAD4 (217-434) Cys367Ser mutant and Yap1 (Full-length) were expressed as GST-fusion proteins; made in house; host or cells: E. coli BL-21 (DE3), pGEX-6P-1; conditions: 0.5, 6, 24, 48 h incubation at 4° C., 0.1-100 μM
TEAD4.Yap1 interaction, sequence (Q15561 217-434): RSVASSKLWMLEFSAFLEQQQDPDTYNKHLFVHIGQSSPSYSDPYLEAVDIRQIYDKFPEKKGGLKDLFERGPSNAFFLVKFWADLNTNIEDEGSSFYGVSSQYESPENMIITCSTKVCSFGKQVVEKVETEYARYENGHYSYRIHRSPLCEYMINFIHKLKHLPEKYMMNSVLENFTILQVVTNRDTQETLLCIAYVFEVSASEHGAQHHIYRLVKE

TEAD4 = TEAD4 (Homo sapiens, UniProt Q15561); assay: Whole protein ESI mass spectrometry, adduct formation; type: binding; design: TEAD4 (217-434), TEAD4 (217-434) Cys367Ser mutant and Yap1 (Full-length) were expressed as GST-fusion proteins; GST (N, cleaved yes); made in house; host or cells: E. coli BL-21 (DE3), pGEX-6P-1; conditions: for covalent adduct formation with TEAD4: 10 μM TEAD4, 200 μM compound, 24 h at 4° C.
TEAD4, sequence (Q15561 217-434): as above
Method: as §1
It was determined whether a covalent bond formed between inventive compounds and TEAD4. […] The covalent adduct formation by compound 2 was relatively fast (FIG. 3G), reaching nearly 100% adduct formation after 30 min incubation with TEAD4. Because the rate of inhibition developed over a longer timescale (FIG. 3C), compound 2 is proposed to induce a slow conformational change in TEAD4 that prevents its interaction with Yap1. To rule out the possibility that compound 2 induces slow aggregation of TEAD4, and not the proposed slow conformational change, GST-TEAD4 was incubated with DMSO compound 2 for 24 h at 4° C., followed by injection into an SEC column (FIG. 3H). […] A slight increase in dimer formation for the TEAD4 sample incubated with compound 2 occurred compared to the sample incubated with DMSO. […] Furthermore, it is highly unlikely that Cys-367 oxidation was responsible for the lack of 100% inhibition at longer times since it has been shown that covalent bond formation is rapid and complete within less than an hour.

T1 sequence (Q15561 217-434 C367S): as the sequence (Q15561 217-434) above, with C151S counted along it

| Structure (SMILES) | inhibition of TEAD4 Cys367Ser mutant binding to the peptide (TEAD4 Cys367Ser mutant [1]) | adduct formation with TEAD4 Cys367Ser mutant (TEAD4 Cys367Ser mutant [2]) | CTGF transcript levels versus vehicle (CTGF transcript levels [3]) | CTGF transcript levels versus control cells (CTGF transcript levels [4]) | kinact (TEAD4.Yap1 interaction; read-out: maximum rate of inactivation (kinact) (converted)) [s⁻¹] | covalent adduct formation with TEAD4 (TEAD4) | adduct formation with TEAD4 (TEAD4; after 30 min incubation) [%] | kinact (TEAD4.Yap1 interaction; read-out: rate of inactivation kinact (converted)) [s⁻¹] |
| --- | --- | --- | --- | --- | --- | --- | --- | --- |
| O=C(CCl)c1ccccc1Nc1cccc(C(F)(F)F)c1 [Compound 2, 2-chloro-1-(2-((3-(trifluoromethyl)phenyl)amino)phenyl)ethanone] | did not inhibit | failed to form an adduct | suppressed CTGF transcript levels | significant reduction | 1.06e-05 | a peak at 26229 was observed, corresponding to the TEAD4.compound 2 adduct | ~100 |  |
| O=C(CCl)c1ncccc1Nc1cccc(C(F)(F)F)c1 [Compound 5, 2-chloro-1-(3-((3-(trifluoromethyl)phenyl)amino)pyridin-2-yl)ethanone] | also inhibited the TEAD4 Cys367Ser mutant | formed an adduct | suppressed CTGF transcript levels | significant reduction |  | formed more than one covalent complex |  | 1.36e-05 |

— patent US20210403415A1, “COMPOUNDS AND METHODS TO ATTENUATE TUMOR PROGRESSION AND METASTASIS” (THE TRUSTEES OF INDIANA UNIVERSITY, priority 2018, published 2021)
